Test results: patent US4248882A, “Treating diabetes-associated complications with hydantoin amines” (Pfizer Inc., priority 1980, dated 1981)
Structures can show the parent of a compound that is named as a salt.

Experiments:
[1] = tested on: sorbitol accumulation in the sciatic nerve; assay: inhibition of sorbitol accumulation in the sciatic nerve of streptozotocinized (diabetic) rats; format: in vivo; settings: oral 0.25 mg/kg at 4, 8 and 24 hours following streptozotocin; sorbitol in sciatic nerves measured 27 hours after induction of diabetes; versus untreated animal
Procedure: The compounds of Example 2 and 4 were tested for their ability to reduce or inhibit sorbitol accumulation in the sciatic nerve of streptozotocinized (i.e. diabetic) rats by the procedure essentially described in U.S. Pat. No. 3,821,383. In the present study, the amount of sorbitol accumulation in the sciatic nerves was measured 27 hours after induction of diabetes. The compounds were administered orally at the dose levels of 0.25 mg/kg at 4, 8 and 24 hours following the administration of streptozotocin. The results obtained in this manner are presented below in terms of percent inhibition (%) afforded by the test compound as compared to the case where no compound was administered (i.e. the untreated animal, where sorbitol levels normally rise from approximately […]. tissue to as high as 400 mM/g. tissue in the 27 hour test period): […]

[2] = tested on: aldose reductase; assay: inhibition of aldose reductase enzyme activity (partially purified enzyme from human placenta); format: biochemical; settings: percent inhibition of enzyme activity
Procedure: The compounds of Example 2 and 4 were tested for their ability to reduce or inhibit aldose reductase enzyme activity, following the procedure described in U.S. Pat. No. 3,821,383 and based on the procedure of Hayman et. al., Journal of Biological Chemistry, 240 877 (1965). The substrate employed was partially purified aldose reductase enzyme obtained from human placenta. The results obtained with each compound at a concentration of 10^-6 M are expressed as percent inhibition of enzyme activity.

SMILES | % Inhibition at 0.25 mg/kg [1] [%] | % Inhibition at 10^-6 M [2] [%]
Nc1cc(F)cc2c1OCC[C@]21NC(=O)NC1=O [Example 4, 4S-8-amino-6-fluoro-spiro[4H-2,3-dihydro-1-benzopyran-4,4'-imidazolidine]-2',5'-dione hydrochloride] | 40 | 40
Nc1cc(Cl)cc2c1OCCC21NC(=O)NC1=O (stereo not shown) [Example 2, 8-Amino-6-chloro-spiro[4H-2,3-dihydro-1-benzopyran-4,4'-imidazolidine]-2',5'-dione hydrochloride] | 17 | 58
